Measured values reported in patent US20250170130A1, “MODULATORS OF MYC FAMILY PROTO-ONCOGENE PROTEIN” (Nalo Therapeutics, priority 2022, published 2025).
Where two headings read alike, the source gives them in different places.

Tests used:
MycN = target: T1, MycN (Homo sapiens, UniProt P04198); assay: Degradation of MycN protein in SK-N-BE(2) cells, JESS/Western blot of lysates; format: cell-based; conditions: SKNBE2, 24 h; for Dmax at 0.5 µM: read-out: % Degradation of MycN (SKNBE2) 24 h, 0.5 μM; for Dmax at 1 µM: read-out: % Degradation of MycN (SKNBE2) 24 h, 1 μM; for Dmax at 3 µM: read-out: % Degradation of MycN (SKNBE2) 24 h, 3 μM; for Dmax at 6 µM: read-out: % Degradation of MycN (SKNBE2) 24 h, 6 μM
T1 construct: endogenous in cells; host or cells: SK-N-BE(2)
T1 sequence (P04198 1-464): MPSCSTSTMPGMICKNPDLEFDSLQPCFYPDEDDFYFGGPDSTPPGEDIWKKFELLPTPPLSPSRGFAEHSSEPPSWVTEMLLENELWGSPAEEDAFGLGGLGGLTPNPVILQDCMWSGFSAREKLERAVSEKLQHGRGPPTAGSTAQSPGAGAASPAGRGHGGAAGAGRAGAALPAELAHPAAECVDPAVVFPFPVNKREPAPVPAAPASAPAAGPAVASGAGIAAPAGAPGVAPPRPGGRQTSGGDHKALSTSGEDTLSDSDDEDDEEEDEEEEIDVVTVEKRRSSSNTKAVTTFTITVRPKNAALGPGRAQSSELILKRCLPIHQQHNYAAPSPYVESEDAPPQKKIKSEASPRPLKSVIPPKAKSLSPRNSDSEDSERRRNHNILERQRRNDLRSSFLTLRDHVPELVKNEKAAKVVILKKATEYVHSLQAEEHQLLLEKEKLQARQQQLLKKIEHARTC
How it was run: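 SK-N-BE(2) adherent cells (5E5 per well of a 6 well dish) were grown 24 hrs, then exposed to compounds diluted 1 in 20 in media, with DMSO controls, for 24 hrs. Cells were scraped, pelleted, PBS washed and lysed in RIPA buffer cocktail; after BCA protein quantitation, n-myc was detected by chemiluminescence on JESS/Western blot with tubulin and GAPDH loading controls read in the near infra red channel.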

MycC = target: T2, MycC (Homo sapiens, UniProt P01106); assay: Degradation of MycC protein in L363 cells, JESS/Western blot of lysates; format: cell-based; conditions: L-363, 24 h; for Dmax at 6 µM: read-out: % Degradation of MycC (L-363) 24 h, 6 μM; for Dmax at 3 µM: read-out: % Degradation of MycC (L-363) 24 h, 3 μM; for Dmax at 1 µM: read-out: % Degradation of MycC (L-363) 24 h, 1 μM; for Dmax at 0.5 µM: read-out: % Degradation of MycC (L-363) 24 h, 0.5 μM
T2 construct: endogenous in cells; host or cells: L363
T2 sequence (P01106 whole entry): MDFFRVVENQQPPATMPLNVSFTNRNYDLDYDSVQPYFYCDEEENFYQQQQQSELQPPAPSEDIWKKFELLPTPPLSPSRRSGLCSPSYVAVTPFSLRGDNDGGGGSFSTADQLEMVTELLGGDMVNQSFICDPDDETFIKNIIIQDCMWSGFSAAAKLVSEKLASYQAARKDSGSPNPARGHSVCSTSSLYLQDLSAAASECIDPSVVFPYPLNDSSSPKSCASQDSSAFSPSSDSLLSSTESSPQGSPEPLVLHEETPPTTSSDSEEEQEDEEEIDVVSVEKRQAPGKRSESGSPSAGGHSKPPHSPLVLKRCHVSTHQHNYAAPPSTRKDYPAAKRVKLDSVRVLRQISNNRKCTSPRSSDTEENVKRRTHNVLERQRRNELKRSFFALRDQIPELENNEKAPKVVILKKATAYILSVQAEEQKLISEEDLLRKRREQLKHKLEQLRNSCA
How it was run: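 L363 suspension cells were seeded at 1E6 cells per well and exposed to compound (stock 10 mM in DMSO) for 24 hrs. Cells were collected, spun down, rinsed with PBS, lysed in RIPA buffer cocktail on ice, clarified and kept at −80 degrees. Lysate protein was quantified by BCA, and c-myc was measured on JESS by chemiluminescence with tubulin and GAPDH loading controls in the NIR channel.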

Row | SMILES | Dmax at 0.5 µM (MycN; SKNBE2 cells, 24 h, 0.5 μM) [%] | Dmax at 1 µM (MycN; SKNBE2 cells, 24 h, 1 μM) [%] | Dmax at 3 µM (MycN; SKNBE2 cells, 24 h, 3 μM) [%] | Dmax at 6 µM (MycN; SKNBE2 cells, 24 h, 6 μM) [%] | Dmax at 6 µM (MycC; L-363 cells, 24 h, 6 μM) [%] | Dmax at 3 µM (MycC; L-363 cells, 24 h, 3 μM) [%] | Dmax at 1 µM (MycN) [%] | Dmax at 3 µM (MycN) [%] | Dmax at 6 µM (MycN) [%] | Dmax at 3 µM (MycC) [%] | Dmax at 6 µM (MycC) [%] | Dmax at 0.5 µM (MycN) [%] | Dmax at 1 µM (MycC) [%] | Dmax at 0.5 µM (MycC; L-363 cells, 24 h) [%] | Dmax at 1 µM (MycC; L-363 cells, 24 h, 1 μM) [%]
1 | c1cc(Nc2cc(C3CCCC3)[nH]n2)nc(N2CC3(CN4CCOCC4)CC2C3)n1 [Compound 72, N-(5-Cyclopentyl-1H-pyrazol-3-yl)-2-[4-(morpholinomethyl)-2-azabicyclo[2.1.1]hexan-2-yl]pyrimidin-4-amine] | 20 to 49 | 20 to 49 | 50 to 79 | 80 to 100 | 80 to 100 | – | – | – | – | – | – | – | – | – | –
2 | O=S1(=O)CCN(CC23CC(C2)N(c2nccc(Nc4cc(C5CCCC5)[nH]n4)n2)C3)CC1 [Compound 73, N-(5-Cyclopentyl-1H-pyrazol-3-yl)-2-[4-[(1,1-dioxo-1,4-thiazinan-4-yl)methyl]-2-azabicyclo[2.1.1]hexan-2-yl]pyrimidin-4-amine] | < 20 | 20 to 49 | 50 to 79 | 80 to 100 | 80 to 100 | 20 to 49 | – | – | – | – | – | – | – | – | –
3 | c1cc(Nc2cc(C3CCCC3)[nH]n2)nc(N2CC3(CN4CCCC4)CC2C3)n1 [Compound 75, N-(5-Cyclopentyl-1H-pyrazol-3-yl)-2-[4-(pyrrolidin-1-ylmethyl)-2-azabicyclo[2.1.1]hexan-2-yl]pyrimidin-4-amine] | 20 to 49 | 20 to 49 | 50 to 79 | 80 to 100 | 50 to 79 | – | – | – | – | – | – | – | – | – | –
4 | c1cc(Nc2cc(C3CCCC3)[nH]n2)nc(N2CC3(CN4CCC4)CC2C3)n1 [Compound 76, 2-[4-(Azetidin-1-ylmethyl)-2-azabicyclo[2.1.1]hexan-2-yl]-N-(5-cyclopentyl-1H-pyrazol-3-yl)pyrimidin-4-amine] | – | – | – | – | – | – | < 20 | 80 to 100 | 80 to 100 | < 20 | 80 to 100 | – | – | – | –
5 | CC(C)NCC12CC(C1)N(c1nccc(Nc3cc(C4CCCC4)[nH]n3)n1)C2 [Compound 78, N-(5-Cyclopentyl-1H-pyrazol-3-yl)-2-[4-[(isopropylamino)methyl]-2-azabicyclo[2.1.1]hexan-2-yl]pyrimidin-4-amine] | – | – | – | – | – | – | 20 to 49 | 80 to 100 | 80 to 100 | 50 to 79 | 80 to 100 | < 20 | < 20 | – | –
6 | CNCC12CC(C1)N(c1nccc(Nc3cc(C4CCC4)[nH]n3)n1)C2 [Compound 81, N-(5-Cyclobutyl-1H-pyrazol-3-yl)-2-[4-(methylaminomethyl)-2-azabicyclo[2.1.1]hexan-2-yl]pyrimidin-4-amine] | 20 to 49 | 50 to 79 | 80 to 100 | 80 to 100 | 80 to 100 | 80 to 100 | – | – | – | – | – | – | – | 20 to 49 | 20 to 49
7 | CN1CC2(C1)CN(c1nccc(Nc3cc(C4CCCC4)[nH]n3)n1)C2 [Compound 84, N-(5-cyclopentyl-1H-pyrazol-3-yl)-2-(6-methyl-2,6-diazaspiro[3.3]heptan-2-yl)pyrimidin-4-amine] | – | – | – | 20 to 49 | 20 to 49 | < 20 | – | – | – | – | – | – | – | 20 to 49 | 20 to 49
8 | CN1CC2(CCN(c3nccc(Nc4cc(C5CCCC5)[nH]n4)n3)C2)C1 [Compound 85, N-(5-cyclopentyl-1H-pyrazol-3-yl)-2-(2-methyl-2,6-diazaspiro[3.4]octan-6-yl)pyrimidin-4-amine] | < 20 | < 20 | 20 to 49 | 50 to 79 | < 20 | – | – | – | – | – | – | – | – | < 20 | –
9 | CN1CC2(CCN(c3nccc(Nc4cc(C5CCCC5)[nH]n4)n3)CC2)C1 [Compound 86] | 20 to 49 | 20 to 49 | 80 to 100 | 80 to 100 | 80 to 100 | 80 to 100 | – | – | – | – | – | – | – | – | –
10 | CNCCCN(C)c1nccc(Nc2cc(C3CC3)[nH]n2)n1 [Compound 101, N^4-(5-Cyclopropyl-1H-pyrazol-3-yl)-N^2-methyl-N^2-[3-(methylamino)propyl]pyrimidine-2,4-diamine] | < 20 | < 20 | < 20 | 20 to 49 | 20 to 49 | 20 to 49 | – | – | – | – | – | – | – | 20 to 49 | 20 to 49
11 | CC(F)(F)CNCC12CC(C1)N(c1nccc(Nc3cc(C4CCCC4)[nH]n3)n1)C2 [Compound 103, N-(5-Cyclopentyl-1H-pyrazol-3-yl)-2-[4-[(2,2-difluoropropylamino)methyl]-2-azabicyclo[2.1.1]hexan-2-yl]pyrimidin-4-amine] | < 20 | 20 to 49 | 80 to 100 | 80 to 100 | 80 to 100 | – | – | – | – | – | – | – | – | < 20 | < 20
12 | CN1CCCC2(C1)CN(c1nccc(Nc3cc(C4CC4)[nH]n3)n1)C2 [Compound 104, N-(5-cyclopropyl-1H-pyrazol-3-yl)-2-(8-methyl-2,8-diazaspiro[3.5]nonan-2-yl)pyrimidin-4-amine] | – | < 20 | 20 to 49 | 20 to 49 | 20 to 49 | – | – | – | – | – | – | – | – | – | < 20
13 | c1cc(Nc2cc(C3CC3)[nH]n2)nc(N2CC3(CCCNC3)C2)n1 [Compound 105, N-(5-Cyclopropyl-1H-pyrazol-3-yl)-2-(2,8-diazaspiro[3.5]nonan-2-yl)pyrimidin-4-amine] | < 20 | < 20 | < 20 | 80 to 100 | 80 to 100 | < 20 | – | – | – | – | – | – | – | – | –
14 | c1cc(Nc2cc(C3CCCC3)[nH]n2)nc(N2CC3(CCCNC3)C2)n1 [Compound 106, N-(5-Cyclopentyl-1H-pyrazol-3-yl)-2-(2,8-diazaspiro[3.5]nonan-2-yl)pyrimidin-4-amine] | < 20 | < 20 | 20 to 49 | 20 to 49 | < 20 | < 20 | – | – | – | – | – | – | – | < 20 | < 20
15 | CN1CC2(CCCN(c3nccc(Nc4cc(C5CCCC5)[nH]n4)n3)C2)C1 [Compound 107, N-(5-cyclopentyl-1H-pyrazol-3-yl)-2-(2-methyl-2,6-diazaspiro[3.5]nonan-6-yl)pyrimidin-4-amine] | < 20 | 20 to 49 | 20 to 49 | 20 to 49 | < 20 | < 20 | – | – | – | – | – | – | – | – | –
16 | NC[C@H]1CCCN(c2nccc(Nc3cc(C4CCCC4)[nH]n3)n2)C1 [Compound 108, 2-[(3R)-3-(Aminomethyl)-1-piperidyl]-N-(5-cyclopentyl-1H-pyrazol-3-yl)pyrimidin-4-amine] | < 20 | 50 to 79 | 50 to 79 | 80 to 100 | 80 to 100 | 80 to 100 | – | – | – | – | – | – | – | – | –
17 | NC[C@@H]1CCCN(c2nccc(Nc3cc(C4CCCC4)[nH]n3)n2)C1 [Compound 109, 2-[(3S)-3-(Aminomethyl)-1-piperidyl]-N-(5-cyclopentyl-1H-pyrazol-3-yl)pyrimidin-4-amine] | 20 to 49 | 50 to 79 | 50 to 79 | 80 to 100 | 80 to 100 | 80 to 100 | – | – | – | – | – | – | – | < 20 | < 20
18 | NC[C@@H]1CCN(c2nccc(Nc3cc(C4CCCC4)[nH]n3)n2)C1 [Compound 110, 2-[(3S)-3-(Aminomethyl)pyrrolidin-1-yl]-N-(5-cyclopentyl-1H-pyrazol-3-yl)pyrimidin-4-amine] | 20 to 49 | 50 to 79 | 50 to 79 | 80 to 100 | 80 to 100 | 80 to 100 | – | – | – | – | – | – | – | < 20 | –
